From paper PMC12596218 (Journal of Lipid Research, 2025)
“And” between values parts separate entries of the source, which are not always exact repeats. Equal entries are not always repeated.

Columns and labels:
[1] = biological target: T1, NTCP (Homo sapiens, UniProt Q14973); assay: [3H]preS1 peptide binding to NTCP-HEK293 cells; conditions: 5 nM [3H]preS1; two independent experiments
T1 construct: stably transfected with the full open reading frames of human NTCP, ASBT, SOAT, OATP1B1, OATP1B3, OATP2B1, and murine Asbt (mAsbt); expressed in transfected cells; host or cells: HEK293 (Flp-In), stably transfected, tetracycline-induced
T1 sequence (Q14973 1-349): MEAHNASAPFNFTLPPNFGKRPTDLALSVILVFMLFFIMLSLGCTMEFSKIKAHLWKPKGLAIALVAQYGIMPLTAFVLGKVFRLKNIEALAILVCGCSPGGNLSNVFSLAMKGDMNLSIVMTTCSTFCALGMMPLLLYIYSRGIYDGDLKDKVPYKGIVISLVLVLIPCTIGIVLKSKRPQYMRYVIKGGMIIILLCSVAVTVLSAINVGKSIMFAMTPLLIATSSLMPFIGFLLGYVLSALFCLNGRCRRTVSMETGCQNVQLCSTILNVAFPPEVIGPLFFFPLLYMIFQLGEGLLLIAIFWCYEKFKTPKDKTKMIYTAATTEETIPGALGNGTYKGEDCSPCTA
Description: Human embryonic kidney HEK293 cells, stably transfected with the full open reading frames of human NTCP, ASBT, SOAT, OATP1B1, OATP1B3, OATP2B1, and murine Asbt (mAsbt) were used as reported ([18], [20], [21], [22], [23]). The NTCP, ASBT, and mAsbt constructs were C-terminally tagged with the FLAG epitope, and the SOAT construct was C-terminally tagged with green fluorescent protein. Non-transfected Flp-In HEK293 cells (Thermo Fisher Scientific) served as the control. All cell lines were maintained at 37°C, 5% CO2 and 95% humidity in DMEM/F-12 medium (Thermo Fisher Scientific) supplemented with 10% fetal calf serum (Sigma-Aldrich), 4 mM L-glutamine (PAA) and penicillin/streptomycin (PAA). […]
Cells were seeded onto poly-L-lysine-coated 96-well plates, induced with 1 μg/ml tetracycline, and grown to confluence over 72 h at 37°C. […] Then, the cell-associated radioactivity of the respective tritium-labeled substrate or ligand was quantified by liquid scintillation counting using MicroScint-20 scintillation cocktail (Revvity) in a Packard Microplate Scintillation Counter TopCount NXT (Packard Instrument Company). […] Finally, all net transport data were expressed as uptake or binding as % of control. […] From the specific uptake rates, Michaelis Menten Km values were calculated by non-linear regression analysis.

[2] = biological target: T2, murine Asbt (mAsbt) (Mus musculus, UniProt P70172); assay: [3H]TC transport and inhibition assay in mAsbt-HEK293 cells; type: cell-based; conditions: for Inhibition curve/AUC of mAsbt compared to ASBT: 1 μM [3H]TC, 10 min, AUC combined from two experiments
T2 construct: stably transfected with the full open reading frames of human NTCP, ASBT, SOAT, OATP1B1, OATP1B3, OATP2B1, and murine Asbt (mAsbt); expressed in transfected cells; host or cells: HEK293 (Flp-In), stably transfected, tetracycline-induced
T2 sequence (P70172 1-348): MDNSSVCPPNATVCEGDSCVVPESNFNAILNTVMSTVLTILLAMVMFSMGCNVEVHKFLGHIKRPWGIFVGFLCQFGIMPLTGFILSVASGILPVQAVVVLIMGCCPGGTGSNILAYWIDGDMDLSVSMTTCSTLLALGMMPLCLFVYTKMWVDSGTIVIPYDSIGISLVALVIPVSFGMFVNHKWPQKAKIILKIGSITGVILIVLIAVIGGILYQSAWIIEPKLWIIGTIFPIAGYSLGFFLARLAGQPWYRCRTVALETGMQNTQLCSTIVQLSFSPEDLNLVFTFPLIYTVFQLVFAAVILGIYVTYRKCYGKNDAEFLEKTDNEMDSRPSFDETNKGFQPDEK
Description: Human embryonic kidney HEK293 cells, stably transfected with the full open reading frames of human NTCP, ASBT, SOAT, OATP1B1, OATP1B3, OATP2B1, and murine Asbt (mAsbt) were used as reported ([18], [20], [21], [22], [23]). The NTCP, ASBT, and mAsbt constructs were C-terminally tagged with the FLAG epitope, and the SOAT construct was C-terminally tagged with green fluorescent protein. Non-transfected Flp-In HEK293 cells (Thermo Fisher Scientific) served as the control. All cell lines were maintained at 37°C, 5% CO2 and 95% humidity in DMEM/F-12 medium (Thermo Fisher Scientific) supplemented with 10% fetal calf serum (Sigma-Aldrich), 4 mM L-glutamine (PAA) and penicillin/streptomycin (PAA). Expression of the respective carrier protein was induced by tetracycline treatment at 1 μg/ml (Carl Roth GmbH + Co. KG).
Cells were seeded onto poly-L-lysine-coated 96-well plates, induced with 1 μg/ml tetracycline, and grown to confluence over 72 h at 37°C. Then, cells were washed with tempered (37°C) phosphate-buffered saline (PBS, containing 137.0 mM NaCl, 2.7 mM KCl, 1.5 mM KH2PO4, and 7.3 mM Na2HPO4, at pH 7.4) and preincubated with 80 μl sodium transport buffer (STB, containing 142.9 mM NaCl, 4.7 mM KCl, 1.2 mM MgSO4, 1.2 mM KH2PO4, 1.8 mM CaCl2, and 20.0 mM HEPES, at pH 7.4) for 5 min at 37°C. For inhibition studies, the medium was replaced by 80 μl STB containing the respective inhibitor or solvent alone and cells were further incubated for 5 min at 37°C. Transport experiments were started by adding 20 μl of a 5-fold concentrated substrate solution (solved in STB). For transport experiments under sodium-free conditions the same buffer composition was used as for STB, but sodium chloride was substituted with equimolar concentrations of choline chloride as previously reported ([20], [24]). Transport experiments were stopped by washing twice with ice-cold PBS and the plates were kept cool on ice until adding the lysis buffer [1% sodium dodecyl sulfate (SDS) and 1 N NaOH]. Then, the cell-associated radioactivity of the respective tritium-labeled substrate or ligand was quantified by liquid scintillation counting using MicroScint-20 scintillation cocktail (Revvity) in a Packard Microplate Scintillation Counter TopCount NXT (Packard Instrument Company). For IC50 transport inhibition measurements, the mean uptake values measured in non-carrier-expressing HEK293 control cells were defined as 0% uptake control and were subtracted from all other values. Values from cells without inhibitor and solvent alone were set to 100%. Finally, all net transport data were expressed as uptake or binding as % of control. […] From the specific uptake rates, Michaelis Menten Km values were calculated by non-linear regression analysis.

[3] = biological target: T3, ASBT (Homo sapiens, UniProt Q12908); assay: Transport inhibition and recovery assay (inhibitor washout) in ASBT-HEK293 cells; type: cell-based; conditions: 3 μM inhibitor, 5 min preincubation, 10 min uptake of 1 μM [3H]TC
T3 construct: stably transfected with the full open reading frames of human NTCP, ASBT, SOAT, OATP1B1, OATP1B3, OATP2B1, and murine Asbt (mAsbt); expressed in transfected cells; host or cells: HEK293 (Flp-In), stably transfected, tetracycline-induced
T3 sequence (Q12908 1-348): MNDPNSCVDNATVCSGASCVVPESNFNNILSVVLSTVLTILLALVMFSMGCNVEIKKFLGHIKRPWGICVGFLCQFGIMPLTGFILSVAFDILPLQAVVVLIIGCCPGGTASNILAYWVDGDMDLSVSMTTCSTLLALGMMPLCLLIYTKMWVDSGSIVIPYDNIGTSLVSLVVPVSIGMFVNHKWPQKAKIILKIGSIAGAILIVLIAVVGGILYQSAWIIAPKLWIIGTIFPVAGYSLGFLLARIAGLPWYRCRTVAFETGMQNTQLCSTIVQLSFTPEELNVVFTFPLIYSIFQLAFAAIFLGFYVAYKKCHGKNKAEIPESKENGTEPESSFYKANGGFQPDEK

IC50 [1]	Transport inhibition at highest substrate concentration ([2]; 500 μM [3H]TC)	ASBT inhibition with inhibitor present during uptake (inhibitor + [3H]TC) [3]	SMILES	Inhibition curve/AUC of mAsbt compared to ASBT [2]	IC50 values at increasing substrate concentrations (in words) ([2]; [3H]TC 0.3-500 μM)
147 µM and 36 µM	–	–	CCCCC1(CCCC)CN(c2ccccc2)c2cc(SC)c(OCC(=O)N[C@@H](C(=O)NCC(=O)O)c3ccccc3)cc2S(=O)(=O)C1 [elobixibat]	–	–
144 µM and 15.9 µM	–	–	CCCCC1(CCCC)CN(c2ccccc2)c2cc(SC)c(OCC(=O)N[C@@H](C(=O)N[C@@H](CC)C(=O)O)c3ccc(O)cc3)cc2S(=O)(=O)N1 [odevixibat]	much more potent inhibitor of the human ASBT protein compared to mAsbt	–
–	full transport inhibition	full ASBT inhibition	CCCC[C@]1(CC)CS(=O)(=O)c2cc(CNC(CC(=O)O)CC(=O)O)c(OC)cc2[C@@H](c2ccccc2)N1 [linerixibat]	lower AUC values were determined for mAsbt compared to ASBT but without reaching the level of significance	remained quite stable
